According to patent US8637509B2, “Azaindazoles” (GlaxoSmithKline LLC, priority 2010, dated 2014):
pIC50: −log10 of the molar value. Read-outs that look alike come from different tables or passages of the source.

Target: T1, EZH2 (Homo sapiens, UniProt Q15910)
T1 construct: GRITS37108
Test: EZH2 methyltransferase SPA assay (3H-SAM, Hela nucleosomes)
Format: biochemical
Conditions: read-out: IC50

[1] = 10 nM EZH2, 7 μg/ml Hela nucleosomes, 2-parameter IC50 fit, single-point-in-time values

T1 sequence (Q15910 whole entry): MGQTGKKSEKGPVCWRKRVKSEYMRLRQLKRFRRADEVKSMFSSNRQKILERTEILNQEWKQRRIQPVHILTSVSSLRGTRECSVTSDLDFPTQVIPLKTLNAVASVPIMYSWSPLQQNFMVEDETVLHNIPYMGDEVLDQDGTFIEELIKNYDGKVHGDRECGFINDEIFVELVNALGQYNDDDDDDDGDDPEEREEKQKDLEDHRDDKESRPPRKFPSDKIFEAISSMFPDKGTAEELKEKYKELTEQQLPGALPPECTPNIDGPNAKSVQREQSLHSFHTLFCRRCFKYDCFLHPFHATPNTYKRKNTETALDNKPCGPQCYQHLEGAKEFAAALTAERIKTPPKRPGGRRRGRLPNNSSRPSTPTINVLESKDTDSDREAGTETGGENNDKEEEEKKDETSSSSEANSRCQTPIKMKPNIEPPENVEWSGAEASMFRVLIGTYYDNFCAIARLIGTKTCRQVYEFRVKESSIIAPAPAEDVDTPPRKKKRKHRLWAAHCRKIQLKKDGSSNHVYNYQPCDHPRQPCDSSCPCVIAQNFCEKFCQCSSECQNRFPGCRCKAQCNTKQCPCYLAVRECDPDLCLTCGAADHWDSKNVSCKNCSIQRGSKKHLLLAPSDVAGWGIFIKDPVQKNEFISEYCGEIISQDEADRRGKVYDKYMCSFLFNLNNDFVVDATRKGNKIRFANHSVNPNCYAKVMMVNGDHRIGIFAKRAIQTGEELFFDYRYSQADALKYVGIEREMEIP
T1 sequence (O75530 whole entry partner): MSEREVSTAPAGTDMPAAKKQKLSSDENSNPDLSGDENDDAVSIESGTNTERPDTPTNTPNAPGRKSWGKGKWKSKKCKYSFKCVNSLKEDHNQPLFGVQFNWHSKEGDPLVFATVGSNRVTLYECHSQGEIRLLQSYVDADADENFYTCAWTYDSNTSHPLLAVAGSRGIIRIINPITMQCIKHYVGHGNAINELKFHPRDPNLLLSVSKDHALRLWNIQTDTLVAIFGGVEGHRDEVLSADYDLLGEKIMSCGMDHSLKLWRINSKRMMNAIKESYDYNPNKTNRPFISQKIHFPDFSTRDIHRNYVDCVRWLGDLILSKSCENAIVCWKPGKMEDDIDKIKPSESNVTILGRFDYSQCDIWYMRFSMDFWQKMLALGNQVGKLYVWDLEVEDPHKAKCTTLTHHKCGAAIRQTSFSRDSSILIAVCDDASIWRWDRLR
T1 sequence (Q15022 whole entry partner): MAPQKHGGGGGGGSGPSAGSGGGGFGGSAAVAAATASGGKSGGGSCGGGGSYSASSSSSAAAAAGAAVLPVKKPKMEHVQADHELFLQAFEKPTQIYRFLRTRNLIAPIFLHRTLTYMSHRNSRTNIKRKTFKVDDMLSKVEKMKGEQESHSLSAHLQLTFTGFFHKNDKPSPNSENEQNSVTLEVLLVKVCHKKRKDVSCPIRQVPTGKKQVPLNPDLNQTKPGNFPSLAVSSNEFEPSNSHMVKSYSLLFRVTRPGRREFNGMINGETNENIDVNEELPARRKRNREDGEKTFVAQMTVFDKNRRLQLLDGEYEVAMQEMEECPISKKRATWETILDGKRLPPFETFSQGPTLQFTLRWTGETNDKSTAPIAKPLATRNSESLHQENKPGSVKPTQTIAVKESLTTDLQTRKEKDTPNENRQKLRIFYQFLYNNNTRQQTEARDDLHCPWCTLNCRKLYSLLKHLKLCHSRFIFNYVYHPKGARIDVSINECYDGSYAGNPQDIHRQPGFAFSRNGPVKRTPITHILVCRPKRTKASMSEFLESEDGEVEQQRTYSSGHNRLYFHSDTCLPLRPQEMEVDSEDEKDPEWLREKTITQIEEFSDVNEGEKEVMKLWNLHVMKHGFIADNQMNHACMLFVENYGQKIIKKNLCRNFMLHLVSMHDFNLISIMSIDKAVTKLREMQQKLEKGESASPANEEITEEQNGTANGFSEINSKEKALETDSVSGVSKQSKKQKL

Row | Compound | pIC50 | pIC50 [1]
1 | Cc1cc(C)c(CNC(=O)c2cc(-c3cccnc3)nc3c2cnn3C(C)C)c(=O)[nH]1 [Ex 73, N-[(4,6-Dimethyl-2-oxo-1,2-dihydro-3-pyridinyl)methyl]-1-(1-methylethyl)-6-(3-pyridinyl)-1H-pyrazolo[3,4-b]pyridine-4-carboxamide] | 6.27 | –
2 | COc1ccc(-c2cc(C(=O)NCc3c(C)cc(C)[nH]c3=O)c3c(C)nn(C(C)(C)C)c3n2)cc1 [Ex 121, 1-(1,1-Dimethylethyl)-N-[(4,6-dimethyl-2-oxo-1,2-dihydro-3-pyridinyl)methyl]-3-methyl-6-[4-(methyloxy)phenyl]-1H-pyrazolo[3,4-b]pyridine-4-carboxamide] | 6.39 | –
3 | Cc1cc(C)c(CNC(=O)c2cc(-c3ccccc3[N+](=O)[O-])nc3c2cnn3C(C)C)c(=O)[nH]1 [Ex 124, N-[(4,6-Dimethyl-2-oxo-1,2-dihydro-3-pyridinyl)methyl]-1-(1-methylethyl)-6-(2-nitrophenyl)-1H-pyrazolo[3,4-b]pyridine-4-carboxamide] | 5.98 | –
4 | Cc1cc(C)c(CNC(=O)c2cc(C#CC(C)(C)O)nc3c2cnn3C(C)C)c(=O)[nH]1 [Ex 29, N-[(4,6-Dimethyl-2-oxo-1,2-dihydro-3-pyridinyl)methyl]-6-(3-hydroxy-3-methyl-1-butyn-1-yl)-1-(1-methylethyl)-1H-pyrazolo[3,4-b]pyridine-4-carboxamide] | 6.63 | –
5 | COc1ccc(-c2cc(C(=O)NCc3c(C)cc(C)[nH]c3=O)c3cnn(C(C)C)c3n2)cc1 [Ex 113, N-[(4,6-Dimethyl-2-oxo-1,2-dihydro-3-pyridinyl)methyl]-1-(1-methylethyl)-6-[4-(methyloxy)phenyl]-1H-pyrazolo[3,4-b]pyridine-4-carboxamide] | 6.61 | –
6 | Cc1cc(C)c(CNC(=O)c2cc(N)nc3c2cnn3C(C)C)c(=O)[nH]1 [Ex 6, 6-Amino-N-[(4,6-dimethyl-2-oxo-1,2-dihydro-3-pyridinyl)methyl]-1-(1-methylethyl)-1H-pyrazolo[3,4-b]pyridine-4-carboxamide] | 6.16 | –
7 | Cc1cc(-c2ccccc2)c(CNC(=O)c2cc(-c3ccncc3)nc3c2cnn3C(C)C)c(=O)[nH]1 [Ex 14, 1-(1-Methylethyl)-N-[(6-methyl-2-oxo-4-phenyl-1,2-dihydro-3-pyridinyl)methyl]-6-(4-pyridinyl)-1H-pyrazolo[3,4-b]pyridine-4-carboxamide] | 6.13 | –
8 | Cc1cc(C)c(CNC(=O)c2cc(-c3ccccc3)nc3c2cnn3C(C)C)c(=O)[nH]1 [Ex 38, N-[(4,6-Dimethyl-2-oxo-1,2-dihydro-3-pyridinyl)methyl]-1-(1-methylethyl)-6-phenyl-1H-pyrazolo[3,4-b]pyridine-4-carboxamide] | 6.41 | –
9 | N-[(4,6-Dimethyl-2-oxo-1,2-dihydro-3-pyridinyl)methyl]-1-(1-methylethyl)-6-(2-phenylethyl)-1H-pyrazolo[3,4-b]pyridine-4-carboxamide [Ex 32] | – | 6.07
10 | Cc1cc(C)c(CNC(=O)c2cc(NC3CCOCC3)nc3c2cnn3C(C)C)c(=O)[nH]1 [Ex 54, N-[(4,6-Dimethyl-2-oxo-1,2-dihydro-3-pyridinyl)methyl]-1-(1-methylethyl)-6-(tetrahydro-2H-pyran-4-ylamino)-1H-pyrazolo[3,4-b]pyridine-4-carboxamide] | 6.29 | –
11 | CCCc1cc(C)c(CNC(=O)c2cc(C3CC3)nc3c2cnn3C(C)C)c(=O)[nH]1 [Ex 7, 6-Cyclopropyl-1-(1-methylethyl)-N-[(4-methyl-2-oxo-6-propyl-1,2-dihydro-3-pyridinyl)methyl]-1H-pyrazolo[3,4-b]pyridine-4-carboxamide] | 5.89 | –
12 | Cc1cc(C)c(CNC(=O)c2cc(N3CCCCC3)nc3c2cnn3C(C)C)c(=O)[nH]1 [Ex 25, N-[(4,6-Dimethyl-2-oxo-1,2-dihydro-3-pyridinyl)methyl]-1-(1-methylethyl)-6-(1-piperidinyl)-1H-pyrazolo[3,4-b]pyridine-4-carboxamide] | 6.16 | –
13 | Cc1cc(C)c(CNC(=O)c2cc(C(C)C)nc3c2cnn3C(C)C)c(=O)[nH]1 [Ex 37, N-[(4,6-Dimethyl-2-oxo-1,2-dihydro-3-pyridinyl)methyl]-1,6-bis(1-methylethyl)-1H-pyrazolo[3,4-b]pyridine-4-carboxamide] | 5.96 | –
14 | 6-{[4-(Aminocarbonyl)phenyl]amino}-N-[(4,6-dimethyl-2-oxo-1,2-dihydro-3-pyridinyl)methyl]-1-(1-methylethyl)-1H-pyrazolo[3,4-b]pyridine-4-carboxamide [Ex 86] | – | 6.85

The remaining compounds from weak to strong by pIC50, led by results:

Row | pIC50 | Compound | pIC50 [1]
15 | 6.63 | Cc1cc(C)c(CNC(=O)c2cc(C#Cc3ccccc3)nc3c2cnn3C(C)C)c(=O)[nH]1 [Ex 31, N-[(4,6-Dimethyl-2-oxo-1,2-dihydro-3-pyridinyl)methyl]-1-(1-methylethyl)-6-(phenylethynyl)-1H-pyrazolo[3,4-b]pyridine-4-carboxamide] | –
16 | 6.88 | Cc1cc(C)c(CNC(=O)c2cc(-c3ccc4cn[nH]c4c3)nc3c2cnn3C(C)C)c(=O)[nH]1 [Ex 75, N-[(4,6-Dimethyl-2-oxo-1,2-dihydro-3-pyridinyl)methyl]-6-(1H-indazol-6-yl)-1-(1-methylethyl)-1H-pyrazolo[3,4-b]pyridine-4-carboxamide] | –
17 | 7.08 | CC(=O)Nc1ccc(-c2cc(C(=O)NCc3c(C)cc(C)[nH]c3=O)c3c(C)nn(C(C)C)c3n2)cc1 [Ex 93, 6-[4-(Acetylamino)phenyl]-N-[(4,6-dimethyl-2-oxo-1,2-dihydro-3-pyridinyl)methyl]-3-methyl-1-(1-methylethyl)-1H-pyrazolo[3,4-b]pyridine-4-carboxamide] | –
18 | 7.13 | CC(=O)Nc1ccc(-c2cc(C(=O)NCc3c(C)cc(C)[nH]c3=O)c3cnn(C(C)C)c3n2)cc1 [Ex 44, 6-[4-(acetylamino)phenyl]-N-[(4,6-dimethyl-2-oxo-1,2-dihydro-3-pyridinyl)methyl]-1-(1-methylethyl)-1H-pyrazolo[3,4-b]pyridine-4-carboxamide] | –
19 | 7.17 | Cc1cc(C)c(CNC(=O)c2cc(-c3ccc(N4CCOCC4)nc3)nc3c2c(C)nn3C(C)(C)C)c(=O)[nH]1 [Ex 89, 1-(1,1-Dimethylethyl)-N-[(4,6-dimethyl-2-oxo-1,2-dihydro-3-pyridinyl)methyl]-3-methyl-6-[6-(4-morpholinyl)-3-pyridinyl]-1H-pyrazolo[3,4-b]pyridine-4-carboxamide] | –
20 | 7.24 | Cc1cc(C)c(CNC(=O)c2cc(-c3cnc4c(c3)CCC(=O)N4)nc3c2cnn3C(C)C)c(=O)[nH]1 [Ex 96, N-[(4,6-Dimethyl-2-oxo-1,2-dihydro-3-pyridinyl)methyl]-1-(1-methylethyl)-6-(7-oxo-1,5,6,7-tetrahydro-1,8-naphthyridin-3-yl)-1H-pyrazolo[3,4-b]pyridine-4-carboxamide] | –
21 | 7.37 | Cc1cc(C)c(CNC(=O)c2cc(-c3ccc4c(c3)NC(=O)C4)nc3c2cnn3C(C)C)c(=O)[nH]1 [Ex 78, N-[(4,6-Dimethyl-2-oxo-1,2-dihydro-3-pyridinyl)methyl]-1-(1-methylethyl)-6-(2-oxo-2,3-dihydro-1H-indol-6-yl)-1H-pyrazolo[3,4-b]pyridine-4-carboxamide] | –
22 | 7.62 | Cc1cc(C)c(CNC(=O)c2cc(-c3ccc(N4CCN(C)CC4)nc3)nc3c2c(C)nn3C(C)C)c(=O)[nH]1 [Ex 27, N-[(4,6-Dimethyl-2-oxo-1,2-dihydro-3-pyridinyl)methyl]-3-methyl-1-(1-methylethyl)-6-[6-(4-methyl-1-piperazinyl)-3-pyridinyl]-1H-pyrazolo[3,4-b]pyridine-4-carboxamide] | –
